US9763454B2, “Composition comprising a biological control agent and a fungicide” (Bayer CropScience AG, priority 2012, dated 2017)

How the values were obtained:
Rhizoctonia solani = test: Rhizoctonia test (cotton)/Drench; format: in vivo; details: greenhouse, 30 ml drench per pot, 7 days at 20° C., BioAct 4 × 10^11 cfu/seed, F70 1.2 mg ai/seed
Description: (§1) The test is performed under greenhouse conditions.
Perlite was incubated with mycelia of Rhizoctonia solani. Infected perlite was scattered in a 1:1 mix of steamed field soil and sand and was incubated in a dark box in greenhouse for 6 days. After soil incubation, cotton seeds were sown in 6*6 cm pots containing this soil mixture.
Compounds and compound combinations were suspended and diluted with water to the desired concentrations. 30 ml of compound or compound combination preparation were drenched on each pot. Pots were incubated in the greenhouse for 7 days at 20° C.
Assessment consisted of counting of emerged seedlings. 0% means an efficacy which corresponds to that of the untreated control, while an efficacy of 100% means that all seedlings have emerged.

[1] = test system: cotton (variety Vicky) seedlings; test: Hypocotyl growth enhancement (cotton)/Drench; format: in vivo; details: 7 days after sowing
Description: as §1
Five cotton (variety Vicky) seeds were sown in a 6*6 cm pot containing 1:1 mix of steamed field soil and sand. Compounds and compound combinations were suspended and diluted with water to the desired concentrations. Just after sowing, 30 ml of compound or compound combination preparation were drenched on each pot. The pots (three replications per treatment) were placed in randomized arrangement in the greenhouse and kept at 20° C. for 7 days.
Length of hypocotyls was measured at 7 days after sowing.

Compound: O=C(NCCc1ncc(C(F)(F)F)cc1Cl)c1ccccc1C(F)(F)F [F70 fluopyram, fluopyram]
- Efficacy in % found (activity found; emerged seedlings) (Rhizoctonia solani): 0%
- Seedling/hypocotyl length compared in words ([1]; drench): significantly higher than untreated
- Hypocotyl (length, average of 15 seedlings) ([1]; greenhouse, 30 ml drench per pot, 20° C., BioAct 4 × 10^11 cfu/plant, F70 1.2 mg ai/plant, untreated 5.3): 5.9 cm
